Laboratory results as given in PMC7913291, “Synthesis and Anti-Hepatocarcinoma Effect of Amino Acid Derivatives of Pyxinol and Ocotillol” (Molecules, 2021).
Like-named read-outs stand apart in the source and are kept apart here.

Columns and labels:
[1] = tested on: VEGF; experiment: Serum VEGF level in H22 tumor-bearing mice; format: in vivo, Kunming mice; conditions: mean ± SD
Procedure: (§1) Cyclophosphamide (CTX), used as the positive drug, was purchased from Sigma (St. Lousis, MO, USA. Detecting kits for IL-2, TNF-α, VEGF, AST, ALT, CRE and BUN were purchased from Nanjing Jiancheng Biotechnology Co. (Nanjing, China).
(§2) 24 h after the last administration, the whole blood was collected from the orbit. Serum was obtained from whole blood by centrifugation (3500 rpm, 15 min, 4 °C) and stored at −20 °C. The levels of IL-2, TNF-α, VEGF, AST, ALT, BUN and CRE in serum were determined in accordance with the procedures described in commercial kit instructions.

[2] = tested on: IL-2; experiment: Serum IL-2 level in H22 tumor-bearing mice; format: in vivo, Kunming mice; conditions: mean ± SD
Procedure: as §1, §2

[3] = tested on: HepG2 cells; experiment: Cytotoxic activity on HepG2 cells (CCK-8 assay); format: cell-based; conditions: Homo sapiens, read-out: IC50 over HepG2 cells
Procedure: Human hepatocellular liver carcinoma cell line (HepG2) were obtained from Institute of Biochemistry and Cell Biology, Academy of Science (Shanghai, China) and were authenticated using the STR profiling method. HepG2 cells were cultured in MDEM (Gibco, Waltham, MA, USA) supplemented with 10% fetal bovine serum (FBS) and 1% penicillin-streptomycin bubbled with 5% CO2-enriched air at a temperature of 37 °C (Thermo Scientific, Waltham, MA, USA). The cytotoxic effect of compounds on HepG2 cells was assessed by using CCK-8 method. Briefly, HepG2 cells were cultured in 96-well plates at a density of 5 × 10^3 cells per well for 24 h. […] Three replicates were performed. The relative cell viability was expressed as percentage relative to the untreated cells. The inhibition ratio was calculated. The IC50 values were calculated using Logistic regression from three independent tests.

[4] = tested on: H22 transplanted tumor; experiment: Antitumor activity in H22 tumor-bearing mice (tumor weight, volume, inhibition rate, tumor histology); format: in vivo, Kunming mice
Procedure: Hepatocellular carcinoma cell line (H22) was purchased from the Cell Bank of Type Culture Collection Committee of Chinese Academy of Sciences (Shanghai, China), and cultured in Dulbecco's modified eagle medium supplemented with 10% fetal calf serum and then cultured at 37 °C in 5% CO2. […] (Changchun, China). All the mice, given food and water ad libitum, were raised in temperature and humidity controlled (23 ± 2 °C, 50 ± 10% humidity) environment under a 12 h light/dark cycle. The mice were acclimatized for at least 1 week before use. The animal experiments were performed in accordance with the guidelines for the Care and Use of Laboratory Animals and approved by the ethics committee of School of Pharmaceutical Sciences, Jilin University, China. H22 cells, resuspended in normal saline with final concentration of 5 × 10^6 cells/mL, were injected into the abdominal cavity of mice under aseptic conditions. After 1 week, ascites tumor cells were extracted and dispersed with physiological saline to a concentration of 1 × 10^7 cells/mL.

[5] = Hepatic and renal function (serum ALT, AST, CRE, BUN) in H22 tumor-bearing mice
Procedure: as §1, §2

[6] = tested on: TNF-α; experiment: Serum TNF-α level in H22 tumor-bearing mice; format: in vivo, Kunming mice; conditions: mean ± SD
Procedure: as §1, §2

[7] = Histopathological examination of liver and kidney (H&E staining); conditions: H22 tumor-bearing mice; CTX 20 mg/kg
Procedure: (§3) Mice were then killed by cervical dislocation after blood collected. The tumor, liver and kidney were rapidly separated, weighted and dissected for histopathological examination.
The tissue of tumor, liver and kidney from each mouse was quickly fixed in 10% neutral-buffered formalin for histopathology. The H&E staining of H22 solid tumor, liver and kidney tissue were embedded in paraffin and sectioned into sections with a thickness of 5 µm which were conducted following the manufacturer’s instructions in respective kit. Tumor, liver and kidney tissue sections were observed by light microscopy (Leica DM750, Solms, Germany) and recorded by photography (×400).

[8] = Body weight and organ indexes in H22 tumor-bearing mice
Procedure: Before administration every day, the tumor size and body weight were measured. When the tumor was larger than 20 mm in diameter, animals were euthanized according to the IACUC proposals.
as §3
The liver and kidney indexes were calculated as follows: organ index (mg/g) =average weight of organ/average body weight.

[9] = rat, in vivo; cited from earlier work
[10] = cited from earlier work
[11] = HepG2, CCK-8, 48 h, mean of three experiments ±SD
[12] = 25 mg/kg intragastrically once a day for 14 days
[13] = 50 mg/kg intragastrically once a day for 14 days
[14] = 20 mg/kg intragastrically once a day for 14 days
[15] = serum, H22 tumor-bearing mice, 20 mg/kg

## CC(C)(O)[C@H]1CC[C@@](C)(C2CC[C@]3(C)C2[C@H](O)CC2[C@@]4(C)CC[C@H](OC(=O)C5CCCN5)C(C)(C)C4CC[C@]23C)O1 (stereo partly drawn) [2e, (20S, 24R)-Epoxy-3β-O-(L-prolyl)-dammarane-12β, 25-diol]
[1]; n = 6, 25 mg/kg
  VEGF level: 158.32 ± 15.97 ^##, * pg/mL
[1]; n = 6, 50 mg/kg
  VEGF level: 127.62 ± 17.46 ^##, ** pg/mL
[1]; n = 6, 100 mg/kg
  VEGF level: 114.67 ± 15.42 pg/mL
[2]; n = 6, 25 mg/kg
  IL-2 level: 111.13 ± 13.28 pg/mL
[2]; n = 6, 50 mg/kg
  IL-2 level: 136.86 ± 22.66 pg/mL
[2]; n = 6, 100 mg/kg
  IL-2 level: 174.11 ± 28.90 pg/mL
[3]; [11]
  IC50: 11.3 ± 0.43 µM
[4]; [12]
  Inhibitory Rate (tumor inhibition rate, TIR): 16.20%
  Tumor Weight: 1.35 ± 0.26 g
[4]; [13]
  Inhibitory Rate (tumor inhibition rate, TIR): 24.76%
  Tumor Weight: 1.21 ± 0.34 g
[4]; 100 mg/kg intragastrically once a day for 14 days
  Tumor Weight: 1.04 ± 0.23 g
[4]; 100 mg/kg intragastrically once a day for 14 days, listed as Compound 2e, 100 mg/kg
  Inhibitory Rate (tumor inhibition rate, TIR): 35.32%
[4]; 100 mg/kg intragastrically once a day for 14 days, listed as compound 2e, 100 mg/kg
  Inhibitory Rate (tumor inhibition rate, TIR): 35.32%
[4]; 50, 100 mg/kg, p < 0.05, p < 0.01
  Effect on tumor volume compared to the model group: significantly reduce
[5]; mouse, in vivo, 25 mg/kg
  ALT: 43.62 ± 5.15 ^##, ** IU/L
  AST: 42.51 ± 5.22 ^##, ** IU/L
  CRE: 31.17 ± 9.03 µmol/L
[5]; mouse, in vivo, 50 mg/kg
  ALT: 42.31 ± 5.00 ^##, ** IU/L
  AST: 38.69 ± 6.43 ^##, ** IU/L
  BUN: 11.06 ± 2.16 mmol/L
  CRE: 28.95 ± 9.16 µmol/L
[5]; mouse, in vivo, 100 mg/kg
  ALT: 35.37 ± 3.32 ^##, ** IU/L
  AST: 31.47 ± 4.48 ^#, ** IU/L
  BUN: 10.32 ± 2.77 mmol/L
  CRE: 26.93 ± 10.60 µmol/L
[6]; n = 6, 25 mg/kg
  TNF-α level: 287.01 ± 39.10 pg/mL
[6]; n = 6, 50 mg/kg
  TNF-α level: 321.97 ± 55.57 pg/mL
[6]; n = 6, 100 mg/kg
  TNF-α level: 358.35 ± 45.19 pg/mL

## O=P1(N(CCCl)CCCl)NCCCO1 (stereo not drawn) [Cyclophosphamide, reference compound]
[1]; n = 6, 20 mg/kg
  VEGF level: 103.43 ± 14.00 pg/mL
[7]
  Liver and kidney cell morphology (H&E): many vacuoles and edema
[2]; n = 6, 20 mg/kg
  IL-2 level: 110.52 ± 17.54 pg/mL
[8]; [14]
  Body weight D14: 32.76 ± 3.14 g
  Increase of Body Weight: 11.56 ± 3.23 g
  Kidney Index: 13.27 ± 1.96 mg/g
  Liver Index: 51.54 ± 7.69 mg/g
[8]; D1, 20 mg/kg group
  Body weight D1: 21.20 ± 1.71 g
[3]; HepG2, 48 h
  IC50: 9.18 ± 0.34 µM
[4]; [14]
  Inhibitory Rate (tumor inhibition rate, TIR): 49.69%
  Tumor Weight: 0.81 ± 0.18 g
[4]; CTX 20 mg/kg, p < 0.01
  Effect on tumor volume compared to the model group: significantly reduce
[5]; [15]
  ALT: 50.61 ± 3.22 ^##, ** IU/L
  AST: 53.47 ± 5.04 ^##, ** IU/L
  BUN: 14.23 ± 2.38 ^##, * mmol/L
  CRE: 32.86 ± 7.74 µmol/L
[6]; n = 6, 20 mg/kg
  TNF-α level: 207.47 ± 23.37 ^##, ** pg/mL

## CC(C)(O)C1CCC(C)(C2CCC3(C)C2C(O)CC2C4(C)CCC(O)C(C)(C)C4C(O)CC23C)O1 (stereo not drawn) [Ocotillol]
[9]
  absorption into blood: poor
  systemic exposure: low
  t1/2: long
[3]; [11]
  IC50: 92.7 ± 3.07 µM
[10]
  plasma protein binding rates: high
